The subject of data set [1] is β-hematin formation. Nature of the data set: NP-40 detergent-mediated β-hematin formation inhibition assay (cell-free). The format is biochemical. Particulars: NP-40, pH 4.8, 5 h, 37 °C, read-out: β-hematin formation inhibition IC50 ± SEM. An excerpt: The ability of a compound to inhibit Hz formation can be predicted using the biomimetic cell-free NP40 detergent-mediated β-hematin formation inhibition assay. , This assay mimics the conditions in the acidic DV of the parasite and relies on the binding of pyridine to uncrystallized free heme to detect the inhibition of β-hematin formation using UV–vis spectroscopy (with absorbance measured at 405 nm). , Consequently, the ability of the ferrocenyl quinoline-benzimidazole hybrids (C1–C5) to inhibit β-hematin (synthetic Hz) formation was investigated as a potential mechanism of antiplasmodial action.
The β-hematin formation inhibition assay was modified from the method reported by Sandlin et al. , Stock solutions of the respective test compounds were prepared to 10 mM, in 100% DMSO, with the exception of CQ (used in the salt form, CQDP), which was prepared in Milli-Q water. […] NP-40 is a detergent used to mediate the formation of β-hematin. The solution in column 12 was then serially diluted 2-fold, through to column 2, to give a total of 11 concentrations. Column 1 contained 0 μM of the test compound and thus served as a blank. […] A 178.8 μL aliquot of this hematin suspension was added to 20.0 mL of a 2 M acetate buffer (pH = 4.8) and 100 μL of this solution added to each well. The plates were then covered and incubated for 5 h, at 37 °C. The assay was analyzed using the pyridine-ferrochrome method developed by Ncokazi and Egan. A solution containing water/acetone/2 M HEPES buffer (pH 7.4)/pyridine, in a v/v ratio of 2/2/1/5, was prepared and 32 μL was added to all wells, followed by 60 μL of acetone. The absorbance values were then measured at 405 nm, the results plotted using GraphPad Prism (v5), and the IC50 values obtained using a sigmoidal dose–response curve fitting analysis.

Data set [2] deals with PfNF54. Nature of the data set: In vitro ABS antiplasmodial activity, pLDH assay, drug-sensitive NF54. The format is cell-based, Plasmodium falciparum. Particulars: drug-sensitive NF54, ABS, pLDH, 48 h incubation; read-out: PfNF54 IC50 ± SEM. From the text:
(§1) This side chain is also present in the well-known antiplasmodial agent, FQ.
(§2) Test samples were screened in technical duplicate or triplicate, for three or four biological replicates, for their in vitro blood stage antiplasmodial activity against both the drug-sensitive (NF54) and multidrug-resistant (K1) strains of . Continuous in vitro cultures of asexual erythrocyte stages of were maintained using a modified method of Trager and Jensen. A quantitative assessment of the in vitro antiplasmodial activity was determined via the parasite lactate dehydrogenase (pLDH) assay, using a modified method described by Makler and Hinrichs.
(§3) The test samples were prepared to a 20 mg/mL stock solution in 100% DMSO. Stock solutions were stored at −20 °C. Further dilutions were prepared in complete medium on the day of the experiment. […] Chloroquine diphosphate (CQDP) was used as the reference drug in all experiments. Test samples were tested at a starting concentration of either 100 μg/mL, 50 μg/mL, 10 μg/mL, or 1 μg/mL, which was then serially diluted 2-fold, in complete medium, to give 10 concentrations. The same dilution technique was used for all samples. […] The IC50 values were obtained from full dose–response curves, using a nonlinear dose–response curve fitting analysis, via GraphPad Prism v.5 software.

Data set [3] relates to Immature gametocytes (>90% stage II/III). Nature of the data set: microbe, parasite or virus in culture. Particulars: 48 h drug pressure; for % Inhibition, immature gametocytes: maximum inhibition at 10 μM. The format is cell-based, Plasmodium falciparum. The method, then: (§4) Compounds are diluted 3-fold in at least a 9-point serial dilution series starting at 20 μM, with a nonlethal DMSO concentration of <0.1% maintained. Luciferase activity was determined in 30 μL parasite lysates by adding 30 μL luciferin substrate (Promega Luciferase Assay System) at room temperature and detection of resultant bioluminescence at an integration constant of 10 s with the GloMax-Multi + Detection System with Instinct Software. Methylene blue (5 μM) and the clinical antimalarial candidate MMV390048 (5 μM) were used as controls. IC50 values were determined in GraphPad Prism using a nonlinear regression fit with variable slope (4-parameter) on the dose–response data.
(§5) Assay quality parameters are evaluated for each assay, including Z′-factors (data quality compared to reproducibility using signal, noise, and background parameters; accepted metric >0.6), regression (accepted r 2 > 0.9); >80% viable parasites (top plateau); <20% killed parasites (bottom plateau), hill slope ∼1.

The subject of data set [4] is Mature gametocytes (>95% stage V). Nature of the data set: microbe, parasite or virus in culture. The class given is cell-based, Plasmodium falciparum. Particulars: 48 h drug pressure; for % Inhibition, mature gametocytes: maximum inhibition at 10 μM. The method, then:
as §4, §5

Data set [5] has as its system PfK1. Nature of the data set: microbe, parasite or virus in culture. Particulars: MDR K1, ABS, pLDH, 48 h incubation; read-out: PfK1 IC50 ± SEM. The class given is cell-based, Plasmodium falciparum.
Description: as §1, §2, §3

Data set [6] in a line: Cyclic voltammetry of the ferrocene/ferrocenium couple. The format is physicochemical. Particulars: for Reversibility of the ferrocene/ferrocenium couple: DCM/0.1 M TBAP system. How it is done:
It has been proposed that the oxidation of ferrocene (Fe(C5H5)2) to the ferrocenium cation (Fe(C5H5)2 ^+) is a reversible one-electron transfer process. […] This prompted the investigation into the electrochemical properties of the Fe(C5H5)2/Fe(C5H5)2 ^+ couple in complexes C1–C5, using cyclic voltammetry. FQ was used as the reference, as it is considered the benchmark for all newly developed ferrocenyl-based antiplasmodials.
Nuclear magnetic resonance (NMR) spectra were recorded on a Bruker XR600 MHz spectrometer (^1H at 599.95 MHz and ^13C{^1H} at 151.0 MHz), a Bruker […] (^1H at 400.22 MHz and ^13C{^1H} at 100.65 MHz), or a Varian Mercury 300 (^1H at 300.08 MHz) spectrometer. These were equipped with a Bruker Biospin GmbH casing and sample injector at 30 °C and tetramethylsilane (TMS) was used as the internal standard. Coupling constants are reported in Hz and chemical shifts are reported in ppm relative to residual solvent signals. Infrared (IR) spectroscopy was performed on a PerkinElmer Spectrum 100 FT-IR spectrometer, using attenuated total reflectance (ATR), with vibrations measured in units of cm^–1. Cyclic voltammetric measurements were carried out at ambient temperature under an inert argon atmosphere using a three-electrode system on a BASi Epsilon Eclipse potentiostat/galvanostat electrochemical workstation. The C-3 cell stand, equipped with a glassy carbon working electrode, Ag/AgCl (saturated NaCl) reference electrode, and a Pt wire auxiliary electrode were used to carry out electrochemical measurements. All experiments were carried out in anhydrous dichloromethane containing 0.10 M tetra-n-butylammonium perchlorate (TBAP) as the supporting electrolyte.

[7] abbreviates: scan rate 100 mV/s, CH2Cl2, 0.1 M TBAP.
The mark [8] stands for this setting: vs Ag/AgCl, scan rate 100 mV/s, CH2Cl2, 0.1 M TBAP.

Data on two compounds can be found in PMC12344774, “Ferrocenyl Quinoline-Benzimidazole Hybrids: A Multistage Strategy to Combat Drug-Resistant Malaria” (Inorganic Chemistry, 2025).

Each structure is given as a SMILES string. Where “and” joins values, the source holds several entries; their conditions need not be identical. Equal entries are not always repeated.

A word on the IC50: it is the concentration that gives 50% inhibition.

Regarding `Cc1ccc2c(c1)nc(-[c-]1cccc1)n2CCCNc1ccnc2cc(Cl)ccc12.[Fe+2].c1cc[cH-]c1` [Complex C1, 7-chloro-N-(3-(5-(methyl)-2-ferrocenyl-1H-benzo[d]imidazole-1-yl)propyl)quinolin-4-amine], the IC50 in data set [1] came out at 7.26 µM. Further, the IC50 in data set [2] stood at 9.91 ± 0.71 µM. The “% Inhibition, immature gametocytes” value in data set [3] is given as 3%. The “% Inhibition, mature gametocytes” value in data set [4] turned out to be 7%. Moreover, the IC50 in data set [5] was found to be 6.29 ± 0.51 µM. Besides, the “Reversibility of the ferrocene/ferrocenium couple” value in data set [6] was “chemically and electrochemically reversible”. Also, in data set [6] (setting [7]), the Ipc/Ipa worked out at 1.04 and the ΔE was 0.127 V. Moreover, in data set [6] (setting [8]), the “Anodic peak potential Epa” value is 0.638 V, the “Cathodic peak potential Epc” value is reported as 0.510 V and the “Half-wave potential E1/2” value is recorded as 0.574 V.
As to `Cc1ccc2c(c1)nc(-[c-]1cccc1CN(C)C)n2CCCNc1ccnc2cc(Cl)ccc12.[Fe+2].c1cc[cH-]c1` (centres unmarked) [Complex C3, 7-Chloro-N-(3-(5-methyl-2-(2-N,N-dimethylaminomethyl)ferrocenyl-1H-benzo[d]-imidazole-1-yl)propyl) Quinoline-4-amine], the IC50 was 5.42 µM in data set [1]; 0.025 ± 0.001 µM in data set [2]; 2.35 µM in data set [3] (read-out: IC50 ± S.E., immature gametocytes); 7.27 µM in data set [4] (read-out: IC50 ± S.E., mature gametocytes); 0.11 µM and 0.113 µM in data set [5]. Moreover, in data set [3], the “% Inhibition, immature gametocytes” value was 88%. For the same compound, the “% Inhibition, mature gametocytes” value in data set [4] is listed as 99%. The “Reversibility of the ferrocene/ferrocenium couple” value in data set [6] was “chemically and electrochemically irreversible”. The “Anodic peak potential Epa” value in data set [6] (setting [8]) was determined as 0.678 V.
